Measurements: US11053251B2, “GPR35 modulators” (Prometheus Biosciences, Inc., priority 2019, dated 2021)

Biological target: Human GPR35 (Homo sapiens, UniProt Q9HC97, S294R)
Test: Alternative Beta-Arrestin Assay (JumpIn 294R Tango U2OS cells, LiveBLAzer-FRET B/G)
Assay type: cell-based
Settings: for EC50: Human GPR35 expressing JumpIn 294R Tango U2OS cells, 5 hours treatment
Protocol: Human GPR35 expressing JumpIn (Thermo Fisher) 294R Tango U2OS cells were plated in 384-well format in clear bottom plates at a cell density of 10,000 cells/well and allowed to grow overnight. The next day, cells were treated with serially diluted test compounds for 5 hours. LiveBLAzer-FRET B/G (CCF4-AM) detection reagents were then added and cells were allowed to incubate for 2 hours before reading plates on a BioTek Cytation 5 plate reader. Zaprinast was used as a positive control for dose-response curves. In order to determine EC50 values, data w ere fit to a four-parameter dose-response curves.

Chain of Human GPR35 (Q9HC97 whole entry S294R): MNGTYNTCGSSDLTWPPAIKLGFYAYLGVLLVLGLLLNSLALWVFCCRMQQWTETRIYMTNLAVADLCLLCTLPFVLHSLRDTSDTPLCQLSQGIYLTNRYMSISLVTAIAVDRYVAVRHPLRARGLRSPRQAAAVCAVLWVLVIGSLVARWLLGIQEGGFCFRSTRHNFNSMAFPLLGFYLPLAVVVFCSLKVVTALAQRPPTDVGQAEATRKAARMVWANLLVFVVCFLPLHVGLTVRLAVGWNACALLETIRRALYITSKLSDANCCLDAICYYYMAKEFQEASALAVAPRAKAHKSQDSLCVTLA

## CCOc1cc(-c2cccc(C[C@@H](N)C(=O)O)c2)ccc1-c1nc2[nH]nnc2c(=O)[nH]1 [Compound 275, (R)-2-amino-3-(3′-ethoxy-4′-(7-oxo-6,7-dihydro-3H-[1,2,3]triazolo[4,5-d]pyrimidin-5-yl)-[1,1′-biphenyl]-3-yl)propanoic acid]
  EC50: ≤ 10 µM

## O=C(O)c1ccc(-c2ccc(-c3nc4[nH]nnc4c(=O)[nH]3)c(OC3CCCC3)c2)cc1 [Compound 194, 3′-(Cyclopentyloxy)-4′-(7-oxo-6,7-dihydro-3H-[1,2,3]triazolo[4,5-d]pyrimidin-5-yl)-[1,1′-biphenyl]-4-carboxylic acid]
  EC50: ≤ 10 µM

## CCOc1cc(-c2cccc(N)c2)ccc1-c1nc2[nH]nnc2c(=O)[nH]1 [Compound 197, 5-(3′-Amino-3-ethoxy-[1,1′-biphenyl]-4-yl)-3,6-dihydro-7H-[1,2,3]triazolo[4,5-d]pyrimidin-7-one]
  EC50: ≤ 10 µM

## CCOc1cc(-c2ccc(OC)c(/C=C(\C)C(=O)O)c2)ccc1-c1nc2[nH]nnc2c(=O)[nH]1 [Compound 315, (E)-3-(3′-ethoxy-4-methoxy-4′-(7-oxo-6,7-dihydro-3H-[1,2,3]triazolo[4,5-d]pyrimidin-5-yl)-[1,1′-biphenyl]-3-yl)-2-methylacrylic acid]
  EC50: ≤ 10 µM

## CCOc1cc(-c2cccc(CCC(=O)O)c2)ccc1-c1nc2[nH]nnc2c(=O)[nH]1 [Compound 234, 3-(3′-ethoxy-4′-(7-oxo-6,7-dihydro-3H-[1,2,3]triazolo[4,5-d]pyrimidin-5-yl)-[1,1′-biphenyl]-3-yl)propanoic acid]
  EC50: ≤ 10 µM

## CCOc1cc(-c2ccc(C(=O)O)c(F)c2)ccc1-c1nc2[nH]nnc2c(=O)[nH]1 [Compound 205, 3′-Ethoxy-3-fluoro-4′-(7-oxo-6,7-dihydro-3H-[1,2,3]triazolo[4,5-d]pyrimidin-5-yl)-[1,1′-biphenyl]-4-carboxylic acid]
  EC50: ≤ 10 µM

## CCOc1cc(-c2cccc(/C=C(\C)C(=O)O)c2)ccc1-c1nc2[nH]nnc2c(=O)[nH]1 (single isomer, unassigned) [Compound 237, (E)-3-(3′-ethoxy-4′-(7-oxo-6,7-dihydro-3H-[1,2,3]triazolo[4,5-d]pyrimidin-5-yl)-[1,1′-biphenyl]-3-yl)-2-methylacrylic acid]
  EC50: ≤ 10 µM

## CCOc1cc(-c2cc(O)cc(O[C@@H](C)C(=O)O)c2)ccc1-c1nc2[nH]nnc2c(=O)[nH]1 (single isomer, unassigned) [Compound 256]
  EC50: ≤ 10 µM

## CCOc1cc(-c2cccc(C[C@@H](O)C(=O)O)c2)ccc1-c1nc2[nH]nnc2c(=O)[nH]1 [Compound 284, (R)-3-(3′-ethoxy-4′-(7-oxo-6,7-dihydro-3H-[1,2,3]triazolo[4,5-d]pyrimidin-5-yl)-[1,1′-biphenyl]-3-yl)-2-hydroxypropanoic acid]
  EC50: ≤ 10 µM

## CCOc1cc(-c2cccc(NCCC(=O)O)c2)ccc1-c1nc2[nH]nnc2c(=O)[nH]1 [Compound 226, 3-((3′-Ethoxy-4′-(7-oxo-6,7-dihydro-3H-[1,2,3]triazolo[4,5-d]pyrimidin-5-yl)-[1,1′-biphenyl]-3-yl)amino)propanoic acid]
  EC50: ≤ 10 µM

## CCOc1cc(-c2ccc(OC(C)C)c(/C=C(\C)C(=O)O)c2)ccc1-c1nc2[nH]nnc2c(=O)[nH]1 [Compound 301, (E)-3-(3′-ethoxy-4-isopropoxy-4′-(7-oxo-6,7-dihydro-3H-[1,2,3]triazolo[4,5-d]pyrimidin-5-yl)-[1,1′-biphenyl]-3-yl)-2-methylacrylic acid]
  EC50: ≤ 10 µM

## CCOc1cc(-c2ccc(OCCN3CCCC3)c(/C=C(\C)C(=O)O)c2)ccc1-c1nc2[nH]nnc2c(=O)[nH]1 [Compound 299, (E)-3-(3′-ethoxy-4′-(7-oxo-6,7-dihydro-3H-[1,2,3]triazolo[4,5-d]pyrimidin-5-yl)-4-(2-(pyrrolidin-1-yl)ethoxy)-[1,1′-biphenyl]-3-yl)-2-methylacrylic acid]
  EC50: ≤ 10 µM

## CCOc1cc(-c2cccc(C(C)C(=O)O)c2)ccc1-c1nc2[nH]nnc2c(=O)[nH]1 (centres unmarked) [Compound 297, 2-(3′-ethoxy-4′-(7-oxo-6,7-dihydro-3H-[1,2,3]triazolo[4,5-d]pyrimidin-5-yl)-[1,1′-biphenyl]-3-yl)propanoic acid]
  EC50: ≤ 10 µM

## CCOc1cc(-c2cccc(OC(C)(C)C(=O)O)c2)ccc1-c1nc2[nH]nnc2c(=O)[nH]1 [Compound 213, 2-((3′-Ethoxy-4′-(7-oxo-6,7-dihydro-3H-[1,2,3]triazolo[4,5-d]pyrimidin-5-yl)-[1,1′-biphenyl]-3-yl)oxy)-2-methylpropanoic acid]
  EC50: ≤ 10 µM

## CCOC(=O)C(C)(C)Cc1cccc(-c2ccc(-c3nc4[nH]nnc4c(=O)[nH]3)c(OCC)c2)c1 [Compound 242, ethyl 3-(3′-ethoxy-4′-(7-oxo-6,7-dihydro-3H-[1,2,3]triazolo[4,5-d]pyrimidin-5-yl)-[1,1′-biphenyl]-3-yl)-2,2-dimethylpropanoate]
At 5.6 μM, Table 2
  % inhibition at 5.6 μM: 30% inhibition at

## CCOc1cc(-c2cccc(OC(C(=O)O)c3ccccc3)c2)ccc1-c1nc2[nH]nnc2c(=O)[nH]1 (centres unmarked) [Compound 249, 2-((3′-ethoxy-4′-(7-oxo-6,7-dihydro-3H-[1,2,3]triazolo[4,5-d]pyrimidin-5-yl)-[1,1′-biphenyl]-3-yl)oxy)-2-phenylacetic acid]
  EC50: ≤ 10 µM

## CCOc1cc(-c2cc(F)c(F)c(O[C@@H](C)C(=O)O)c2)ccc1-c1nc2[nH]nnc2c(=O)[nH]1 (single isomer, unassigned) [Compound 261]
  EC50: ≤ 10 µM

## CCOc1cc(-c2ccc(O)c(OC(C)C(=O)O)c2)ccc1-c1nc2[nH]nnc2c(=O)[nH]1 (centres unmarked) [Compound 280, 2-((3′-ethoxy-4-hydroxy-4′-(7-oxo-6,7-dihydro-3H-[1,2,3]triazolo[4,5-d]pyrimidin-5-yl)-[1,1′-biphenyl]-3-yl)oxy)propanoic acid]
  EC50: ≤ 10 µM

## CCOc1cc(-c2cccc(O[C@@H](CC)C(=O)O)c2)ccc1-c1nc2[nH]nnc2c(=O)[nH]1 (single isomer, unassigned) [Compound 254]
  EC50: ≤ 10 µM

## O=C(O)c1ccc(-c2ccc(-c3nc4[nH]nnc4c(=O)[nH]3)c(OC3CCCC3)c2)nc1 [Compound 231, 6-(3-(Cyclopentyloxy)-4-(7-oxo-6,7-dihydro-3H-[1,2,3]triazolo[4,5-d]pyrimidin-5-yl)phenyl)nicotinic acid]
  EC50: ≤ 10 µM

## CCOc1cc(-c2cccc([C@H]3C[C@H]3C(=O)O)c2)ccc1-c1nc2[nH]nnc2c(=O)[nH]1 (single isomer, unassigned) [Compound 307, Cis-2-(3′-ethoxy-4′-(7-oxo-6,7-dihydro-3H-[1,2,3]triazolo[4,5-d]pyrimidin-5-yl)-[1,1′-biphenyl]-3-yl)cyclopropane-1-carboxylic acid]
  EC50: ≤ 10 µM

## CCOc1cc(-c2cc(C)cc(O[C@H](C)C(=O)O)c2)ccc1-c1nc2[nH]nnc2c(=O)[nH]1 [Compound 266, (R)-2-((3′-ethoxy-5-methyl-4′-(7-oxo-6,7-dihydro-3H-[1,2,3]triazolo[4,5-d]pyrimidin-5-yl)-[1,1′-biphenyl]-3-yl)oxy)propanoic acid]
  EC50: ≤ 10 µM

## CCOc1cc(-c2cccc(C[C@H](O)C(=O)O)c2)ccc1-c1nc2[nH]nnc2c(=O)[nH]1 [Compound 282, (S)-3-(3′-ethoxy-4′-(7-oxo-6,7-dihydro-3H-[1,2,3]triazolo[4,5-d]pyrimidin-5-yl)-[1,1′-biphenyl]-3-yl)-2-hydroxypropanoic acid]
  EC50: ≤ 10 µM
